In patent publication US20130252935A1, “Monobactams” (PFIZER INC., priority 2010, published 2013):
≈ marks a conversion by molar mass, not a printed value.

What was measured:
Format in all cases: cell-based
[1] = tested on: Pseudomonas aeruginosa UC-12120; assay: minimum inhibitory concentration (MIC) testing according to CLSI guidelines, Pseudomonas aeruginosa; settings: UC-12120, wild-type, labeled as 1091-05, overnight incubation, lower of duplicate values; for MIC: Pseudomonas aeruginosa, UC12120, read-out: AB-MBT: Pseudomonas aeruginosa 1091-05: MIC (MstRcn)
Description: (§1) In order to assess the compounds biological activity, the in vitro anti-bacterial activity of selected compounds described in the Examples 1-69 was evaluated by minimum inhibitory concentration (MIC) testing according to Clinical and Laboratory Standards Institute (CLSI, formerly NCCLS) guidelines. See: Clinical and Laboratory Standards Institute. Methods for Dilution Antimicrobial Susceptibility Tests for Bacteria that Grow Aerobically; Approved Standard-Eighth Edition. CLSI document M7-A8 [ISBN 1-56238-689-1]. Clinical and Laboratory Standards Institute, 940 West Valley Road, Suite 1400, Wayne, Pa. 19087-1898 USA, 2006; also Clinical and Laboratory Standards Institute. Performance Standards for Antimicrobial Susceptibility Testing; Twentieth Informational Supplement. CLSI document M100-S20 [ISBN1-56238-716-2]. Clinical and Laboratory Standards Institute.
(§2) The MIC determination is a standard laboratory method for evaluating the antibacterial activity of a compound. The MIC represents the lowest drug concentration that inhibits visible growth of bacteria following overnight incubation. […] Typically, the drug concentration range is broken down into 2-fold increments (e.g. 0.06 μg/mL, 0.12 μg/mL. 0.25 μg/mL, 0.50 μg/mL, 1.0 μg/mL, etc.) and the various drug concentrations are all individually incubated overnight with approximately the same number of bacteria. The MIC is then determined by visually inspecting the drug effect at each concentration, and identifying the lowest drug concentration that has inhibited bacterial growth as compared to the drug free control. Typically, bacteria continue to grow at drug concentrations lower than the MIC and don't grow at concentrations at and above the MIC.
(§3) The MIC values described in Table 1 below were derived from assays wherein each test compound was evaluated in duplicate. In cases where the duplicate values varied by 0-2-fold, the lower of the two values was reported below. Generally speaking, if the duplicate values varied by more than 2-fold, the assay was considered non-valid and was repeated until the variation between duplicate runs was ≦2-fold. In line with the CLSI guidelines referred to above, both control organisms and reference compounds were utilized in each MIC assay to provide proper quality control. MIC values generated with these control organisms and reference compounds were required to fall within a defined range for the assay to be considered valid and be included herein. Those skilled in the art will recognize that MIC values can and do vary from experiment to experiment. Generally speaking, it should be recognized that MIC values often vary +/−2-fold from experiment to experiment. While a single MIC is reported for each compound and each microorganism, the reader should not conclude that each compound was only tested once. Several of the compounds were subjected to multiple tests. The data reported in Table 1 is reflective of the compounds relative activity and different MICs may have been generated on these occasions in light with the guidelines described above.
(§4) The following bacterial strains were used in these MIC determinations:
1) Pseudomonas aeruginosa UC-12120: Wild-type, labeled as 1091-05;

[2] = tested on: Acinetobacter baumannii/haemolyticus AB-3167; assay: minimum inhibitory concentration (MIC) testing according to CLSI guidelines, Acinetobacter; settings: multidrug-resistant clinical isolate AB-3167, overnight incubation, lower of duplicate values; for MIC: Acinetobacter baumannii, read-out: AB-MBT: Acinetobacter baumanii AB-3167: MIC (MstRcnt)
Description: as §1, §2, §3, §4
3) Acinetobacter baumannii/haemolyticus: Multidrug-resistant clinical isolate, labeled as AB-3167.

[3] = tested on: Klebsiella pneumoniae 1000-02; assay: minimum inhibitory concentration (MIC) testing according to CLSI guidelines, Klebsiella pneumoniae; settings: ciprofloxacin-resistant, ESBL-expressing clinical isolate 1000-02, overnight incubation, lower of duplicate values; for MIC: Klebsiella pneumoniae, read-out: AB-MBT: Klebsiella pneumoniae 1000-02: MIC (MstRcnt)
Description: as §1, §2, §3, §4
2) Klebsiella pneumoniae: Ciprofloxacin-resistant isolate, expresses extended-spectrum beta-lactamases (ESBL), clinical isolate, labeled as 1000-02;

Row | MIC [1] [mg/L] | MIC [3] [mg/L] | AB-MBT: Pseudomonas aeruginosa 1091-05: MIC (MstRcn) [1] [mg/L] | AB-MBT: Klebsiella pneumoniae 1000-02: MIC (MstRcnt) [3] [mg/L] | SMILES | MIC [2] [mg/L] | AB-MBT: Acinetobacter baumanii AB-3167: MIC (MstRcnt) [2] [mg/L]
1 | 1 (≈ 1.5 µM) | 16 (≈ 24 µM) |  |  | CC(C)(O/N=C(\C(=O)N[C@@H]1C(=O)N(S(=O)(=O)O)[C@@H]1CNC(=O)c1cnc(-c2cc(=O)c(O)c[nH]2)nc1)c1csc(N)n1)C(=O)O [Example 24, 2-({[(1Z)-1-(2-amino-1,3-thiazol-4-yl)-2-({(2R,3S)-2-[({[2-(5-hydroxy-4-oxo-1,4-dihydropyridin-2-yl)pyrimidin-5-yl]carbonyl}amino)methyl]-4-oxo-1-sulfoazetidin-3-yl}amino)-2-oxoethylidene]amino}oxy)-2-methylpropanoic acid] | 2 (≈ 3 µM) | 
2 | 0.125 (≈ 0.198 µM) | 0.125 (≈ 0.198 µM) |  |  | CC(C)(O/N=C(\C(=O)N[C@@H]1C(=O)N(S(=O)(=O)O)[C@@H]1CNC(=O)NCc1cc(=O)c(O)cn1O)c1csc(N)n1)C(=O)O [Example 4, 2-({[(1Z)-1-(2-amino-1,3-thiazol-4-yl)-2-({(2R,3S)-2-[({[(1,5-dihydroxy-4-oxo-1,4-dihydropyridin-2-yl)methyl]carbamoyl}amino)methyl]-4-oxo-1-sulfoazetidin-3-yl}amino)-2-oxoethylidene]amino}oxy)-2-methylpropanoic acid] | 0.5 (≈ 0.79 µM) | 
3 |  |  | 0.250 | 0.250 | Nc1nc(/C(=N/OC2(C(=O)O)CCC2)C(=O)N[C@@H]2C(=O)N(S(=O)(=O)O)[C@@H]2CNC(=O)c2cccc(S(=O)(=O)NCc3cc(=O)c(O)cn3O)c2)cs1 [Example 59] |  | 0.250
4 | 0.25 (≈ 0.371 µM) | 1 (≈ 1.48 µM) |  |  | C[C@H](NC(=O)c1cc(=O)c(O)cn1O)C(=O)NC[C@@H]1[C@H](NC(=O)/C(=N\OC(C)(C)C(=O)O)c2csc(N)n2)C(=O)N1S(=O)(=O)O [Example 54, 2-({[(1Z)-1-(2-amino-1,3-thiazol-4-yl)-2-({(2R,3S)-2-[({N-[(1,5-dihydroxy-4-oxo-1,4-dihydropyridin-2-yl)carbonyl]-L-alanyl}amino)methyl]-4-oxo-1-sulfoazetidin-3-yl}amino)-2-oxoethylidene]amino}oxy)-2-methylpropanoic acid] | 0.25 (≈ 0.371 µM) | 
5 | 1 (≈ 1.44 µM) | 1 (≈ 1.44 µM) |  |  | Nc1nc(/C(=N/O[C@@H](Cc2ccccc2)C(=O)O)C(=O)N[C@@H]2C(=O)N(S(=O)(=O)O)[C@@H]2CNC(=O)NCc2cc(=O)c(O)cn2O)cs1 [Example 32, (2S)-2-({[(1Z)-1-(2-amino-1,3-thiazol-4-yl)-2-({(2R,3S)-2-[({[(1,5-dihydroxy-4-oxo-1,4-dihydropyridin-2-yl)methyl]carbamoyl}amino)methyl]-4-oxo-1-sulfoazetidin-3-yl}amino)-2-oxoethylidene]amino}oxy)-3-phenylpropanoic acid] | 1 (≈ 1.44 µM) | 
6 | 0.125 (≈ 0.213 µM) | 0.5 (≈ 0.851 µM) |  |  | CC(C)(O/N=C(\C(=O)N[C@@H]1C(=O)N(S(=O)(=O)O)[C@@H]1CNC(=O)c1cc(=O)c(O)c[nH]1)c1csc(N)n1)C(=O)O [Example 10, 2-({[(1Z)-1-(2-amino-1,3-thiazol-4-yl)-2-{[(2R,3S)-2-({[(5-hydroxy-4-oxo-1,4-dihydropyridin-2-yl)carbonyl]amino}methyl)-4-oxo-1-sulfoazetidin-3-yl]amino}-2-oxoethylidene]amino}oxy)-2-methylpropanoic acid] | 0.25 (≈ 0.425 µM) | 
7 | 2 (≈ 2.67 µM) | 1 (≈ 1.34 µM) |  |  | Nc1nc(/C(=N/OC2(C(=O)O)CCC2)C(=O)N[C@@H]2C(=O)N(S(=O)(=O)O)[C@@H]2CNC(=O)c2ccc(CNC(=O)c3cc(=O)c(O)cn3O)cc2)cs1 [Example 62, 1-({[(1Z)-1-(2-amino-1,3-thiazol-4-yl)-2-{[(2R,3S)-2-({[4-({[(1,5-dihydroxy-4-oxo-1,4-dihydropyridin-2-yl)carbonyl]amino}methyl)benzoyl]amino}methyl)-4-oxo-1-sulfoazetidin-3-yl]amino}-2-oxoethylidene]amino}oxy)cyclobutanecarboxylic acid] | 0.5 (≈ 0.668 µM) | 
